Measured values: US8039617B2, “Method for producing alpha form crystals of sapropterin hydrochloride” (Shiratori Pharmaceutical Co., Ltd., priority 2005, dated 2011)
Counter-ions that a name gives are not always drawn.

Tests used:
[1] = format: physicochemical
Method: Furthermore, in differential thermal analysis, α form crystal has only one endothermic peak near the 250° C. as shown in FIG. 5 while β form crystal has two endothermic peaks near 180° C. and near 230° C. as shown in FIG. 6.

[2] = moisture absorption during storage; format: physicochemical; conditions: for color change due to moisture absorption: hydrochloride
Method: With regard to moisture absorption, α form crystal undergoes increase in weight by moisture absorption of 0.85 to 2% during storage for 14 days under the conditions of 25° C. and at relative humidity of 20 to 75%. […] On the other hand, weight of the β form crystal gradually increases under the conditions of 25° C. and a relative humidity of 60%, and weight increase is 3.5% at 18 hours and the increase continues to the maximum of 3.9%. From this, α form crystal is more moisture-stable than β form. […] Accordingly, α form crystal is suitable for storage.

SMILES | endothermic peak in differential thermal analysis (thermal stability) [1] | course of weight increase over storage ([2]; 25° C., relative humidity of 20 to 75%, day 1 to day 14) | color change due to moisture absorption [2] | weight increase by moisture absorption ([2]; 25° C., relative humidity of 60%, at 18 hours) | maximum weight increase by moisture absorption ([2]; 25° C., relative humidity of 60%, maximum)
C[C@H](O)[C@H](O)[C@H]1CNc2nc(N)[nH]c(=O)c2N1 [α form crystal, sapropterin hydrochloride] | ~250 °C | stable from day 1 to day 14 | does not change its color |  | 
C[C@H](O)[C@H](O)[C@H]1CNc2nc(N)[nH]c(=O)c2N1 [β form crystal, sapropterin hydrochloride] |  |  | changes the color from white to pale yellow | 3.5% | 3.9%
